Laboratory results published in ChEMBL document CHEMBL1255237, “Novel variant of the qnrB gene, qnrB12, in Citrobacter werkmanii” (2008).
Values after ≈ are worked out from the molar mass of the structure shown. Residues, ends and D or L forms follow the SMILES beside them. *: point of attachment. βNA = c1ccc2cc(N*)ccc2c1

Assays:
Type in all cases: functional
Escherichia coli [1] = test: Antimicrobial activity against Escherichia coli TOP10 harboring pCR-Blunt2-TOPO carrying qnrB12 gene of Citrobacter werkmanii isolate CIT2 by broth macrodilution method in presence of 64 ug/ml Phe-Arg-beta-naphthylamide
Escherichia coli [2] = test: Antimicrobial activity against Escherichia coli TOP10 by broth macrodilution method in presence of 64 ug/ml Phe-Arg-beta-naphthylamide
Escherichia coli [3] = test: Antimicrobial activity against Escherichia coli TOP10 harboring empty vector pCR-Blunt2-TOPO by broth macrodilution method in presence of 64 ug/ml Phe-Arg-beta-naphthylamide
Escherichia coli [4] = test: Antimicrobial activity against Escherichia coli TOP10 harboring pCR-Blunt2-TOPO carrying qnrB12 gene of Citrobacter werkmanii isolate CIT1 by broth macrodilution method in presence of 64 ug/ml Phe-Arg-beta-naphthylamide
Citrobacter werkmanii [5] = test: Antimicrobial activity against Citrobacter werkmanii isolate CIT3 harboring parC Leu88Gln mutant gene and qnrB12 gene by broth macrodilution method in presence of 64 ug/ml Phe-Arg-beta-naphthylamide
Citrobacter werkmanii [6] = test: Antimicrobial activity against nalidixic acid-resistant Citrobacter werkmanii isolate CIT1 harboring gyrA Thr83Ile, parC Ser57Thr mutant gene and qnrB12 gene by broth macrodilution method
Citrobacter werkmanii [7] = test: Antimicrobial activity against Citrobacter werkmanii isolate CIT2 harboring qnrB12 gene by broth macrodilution method in presence of 64 ug/ml Phe-Arg-beta-naphthylamide
Escherichia coli [8] = test: Antimicrobial activity against Escherichia coli TOP10 harboring pCR-Blunt2-TOPO carrying qnrB12 gene of Citrobacter werkmanii isolate CIT3 by broth macrodilution method
Escherichia coli [9] = test: Antimicrobial activity against Escherichia coli TOP10 harboring pCR-Blunt2-TOPO carrying qnrB12 gene of Citrobacter werkmanii isolate CIT1 by broth macrodilution method
Escherichia coli [10] = test: Antimicrobial activity against Escherichia coli TOP10 harboring pCR-Blunt2-TOPO carrying qnrB12 gene of Citrobacter werkmanii isolate CIT2 by broth macrodilution method
Escherichia coli [11] = test: Antimicrobial activity against Escherichia coli TOP10 harboring empty vector pCR-Blunt2-TOPO by broth macrodilution method
Citrobacter werkmanii [12] = test: Antimicrobial activity against Citrobacter werkmanii isolate CIT3 harboring parC Leu88Gln mutant and qnrB12 gene by broth macrodilution method
Escherichia coli [13] = test: Antimicrobial activity against Escherichia coli TOP10 by broth macrodilution method
Citrobacter werkmanii [14] = test: Antimicrobial activity against Citrobacter werkmanii isolate CIT2 harboring qnrB12 gene by broth macrodilution method
Escherichia coli [15] = test: Antimicrobial activity against Escherichia coli TOP10 harboring pCR-Blunt2-TOPO carrying qnrB12 gene of Citrobacter werkmanii isolate CIT3 by broth macrodilution method in presence of 64 ug/ml Phe-Arg-beta-naphthylamide
Citrobacter werkmanii [16] = test: Antimicrobial activity against nalidixic acid-resistant Citrobacter werkmanii isolate CIT1 harboring gyrA Thr83Ile, parC Ser57Thr mutant gene and qnrB12 gene by broth macrodilution method in presence of 64 ug/ml Phe-Arg-beta-naphthylamide

SMILES | MIC (Escherichia coli [1]) | MIC (Escherichia coli [2]) | MIC (Escherichia coli [3]) | MIC (Escherichia coli [4]) | MIC (Citrobacter werkmanii [5]) | MIC (Citrobacter werkmanii [6]) | MIC (Citrobacter werkmanii [7]) | MIC (Escherichia coli [8]) | MIC (Escherichia coli [9]) | MIC (Escherichia coli [10]) | MIC (Escherichia coli [11]) | MIC (Citrobacter werkmanii [12]) | MIC (Escherichia coli [13]) | MIC (Citrobacter werkmanii [14]) | MIC (Escherichia coli [15]) | MIC (Citrobacter werkmanii [16])
O=C(O)c1cn(C2CC2)c2cc(N3CCNCC3)c(F)cc2c1=O [CIPROFLOXACIN] | 0.0625 µg/mL | 0.00195 µg/mL | 0.00195 µg/mL | 0.0625 µg/mL | 0.0312 µg/mL | 1 µg/mL (≈ 3.02 µM) | 0.0312 µg/mL | 0.0625 µg/mL (≈ 0.189 µM) | 0.0625 µg/mL (≈ 0.189 µM) | 0.0625 µg/mL (≈ 0.189 µM) | 0.00195 µg/mL (≈ 0.00589 µM) | 0.0625 µg/mL (≈ 0.189 µM) | 0.00195 µg/mL (≈ 0.00589 µM) | 0.5 µg/mL (≈ 1.51 µM) | 0.0625 µg/mL | 0.25 µg/mL
CCn1cc(C(=O)O)c(=O)c2ccc(C)nc21 [NALIDIXIC ACID] | 1 µg/mL | 0.25 µg/mL | 0.25 µg/mL | 1 µg/mL | 0.25 µg/mL | > 256 µg/mL | 0.5 µg/mL | 8 µg/mL (≈ 34.4 µM) | 8 µg/mL (≈ 34.4 µM) | 8 µg/mL (≈ 34.4 µM) | 2 µg/mL (≈ 8.61 µM) | 8 µg/mL (≈ 34.4 µM) | 2 µg/mL (≈ 8.61 µM) | 8 µg/mL (≈ 34.4 µM) | 1 µg/mL | 16 µg/mL
N=C(N)NCCC[C@H](NC(=O)[C@@H](N)Cc1ccccc1)C(=O)Nc1ccc2ccccc2c1 [PABETAN] (H-Phe-Arg-βNA) |  |  |  |  |  | > 256 µg/mL |  | > 256 µg/mL | > 256 µg/mL | > 256 µg/mL | > 256 µg/mL | 256 µg/mL (≈ 573 µM) | > 256 µg/mL | 256 µg/mL (≈ 573 µM) |  | 
